#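 Following 48 hours of exposure in 96-well plates, responses at five concentrations were used to interpolate endpoints linearly. The concentration for 50% growth inhibition is given as GI50.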 Calls of active or inactive are those of the source. No stated cut-off is given here; in the data, active = GI50 up to about 1.1 µM and inactive = higher.
# Key:
# Assay in all cases: NCI anticancer screen, dose series, 48 h
# [1] = system: OVCAR-4
# [2] = system: IGROV-1
# [3] = system: HOP-92
# [4] = system: UACC-62
# [5] = system: HL-60
# [6] = system: SNB-19
# [7] = system: U-251
# [8] = system: LOX IMVI
# [9] = system: KM12
# [10] = system: A549
# [11] = system: OVCAR-3
# [12] = system: SK-MEL-5
# [13] = system: HCC 2998
# [14] = system: Malme-3M
# [15] = system: SF-268
# [16] = system: A498
# [17] = system: OVCAR-5
# [18] = system: NCI-H23
# [19] = system: M14
# [20] = system: UACC-257
# [21] = system: SW-620
# [22] = system: NCI-H226
# [23] = system: HCT-15
# [24] = system: SK-OV-3
# [25] = system: PC-3
# [26] = system: SF-539
# [27] = system: SK-MEL-28
# [28] = system: MCF7
# [29] = system: DU-145
# [30] = system: NCI-H522
# [31] = system: COLO 205
# [32] = system: MDA-MB-435
# [33] = system: MDA-N
# [34] = system: SK-MEL-2
# [35] = system: K562
# [36] = system: SR
# [37] = system: T47D
# [38] = system: HT-29
# [39] = system: OVCAR-8
# [40] = system: Hs-578T
# [41] = system: 786-0
# [42] = system: SNB-75
# [43] = system: NCI-H460
# [44] = system: ACHN
# [45] = system: EKVX
# [46] = system: CAKI-1
# [47] = system: HOP-62
# [48] = system: CCRF-CEM
# [49] = system: HCT-116
# [50] = system: UO-31
# [51] = system: MOLT-4
# [52] = system: TK-10
# [53] = system: RPMI-8226
# [54] = system: NCI/ADR-RES
# [55] = system: SF-295
# [56] = system: MDA-MB-231
# [57] = system: RXF 393
# [58] = system: SN12C
structure (smiles),measurement,setting,value
O=C1c2ccccc2N1C(=O)c1ccccc1[N+](=O)[O-],GI50,[1],30 µM (inactive)
same,GI50,[2],> 100 µM (inactive)
same,GI50,[3],> 100 µM (inactive)
same,GI50,[4],> 100 µM (inactive)
same,GI50,[5],> 10 µM (inactive)
same,GI50,[6],> 100 µM (inactive)
same,GI50,[7],90.6 µM (inactive)
same,GI50,[8],32.1 µM (inactive)
same,GI50,[9],50 µM (inactive)
same,GI50,[10],45.2 µM (inactive)
same,GI50,[11],18.6 µM (inactive)
same,GI50,[12],51.8 µM (inactive)
same,GI50,[13],> 100 µM (inactive)
same,GI50,[14],29.6 µM (inactive)
same,GI50,[15],39.9 µM (inactive)
same,GI50,[16],> 100 µM (inactive)
same,GI50,[17],> 100 µM (inactive)
same,GI50,[18],> 100 µM (inactive)
same,GI50,[19],59.7 µM (inactive)
same,GI50,[20],> 100 µM (inactive)
same,GI50,[21],> 100 µM (inactive)
same,GI50,[22],12.3 µM (inactive)
same,GI50,[23],44.2 µM
same,GI50,[24],> 100 µM (inactive)
same,GI50,[25],> 100 µM (inactive)
same,GI50,[26],32.2 µM (inactive)
same,GI50,[27],> 100 µM (inactive)
same,GI50,[28],97.1 µM (inactive)
same,GI50,[29],> 100 µM (inactive)
same,GI50,[30],91.2 µM (inactive)
same,GI50,[31],61.1 µM (inactive)
same,GI50,[32],> 100 µM (inactive)
same,GI50,[33],74.6 µM (inactive)
same,GI50,[34],90.8 µM (inactive)
same,GI50,[35],> 100 µM (inactive)
same,GI50,[36],> 100 µM (inactive)
same,GI50,[37],> 100 µM (inactive)
same,GI50,[38],88.1 µM (inactive)
same,GI50,[39],25.1 µM (inactive)
same,GI50,[40],56.1 µM (inactive)
same,GI50,[41],57 µM (inactive)
same,GI50,[42],53.3 µM (inactive)
same,GI50,[43],> 100 µM (inactive)
same,GI50,[44],78.9 µM (inactive)
same,GI50,[45],> 100 µM (inactive)
same,GI50,[46],92 µM (inactive)
same,GI50,[47],45.4 µM (inactive)
same,GI50,[48],48.9 µM (inactive)
same,GI50,[49],36.1 µM (inactive)
same,GI50,[50],> 100 µM (inactive)
same,GI50,[51],> 100 µM (inactive)
same,GI50,[52],> 100 µM (inactive)
same,GI50,[53],64.4 µM (inactive)
CO[C@H]1O[C@@H]2OC3(C)CCC4[C@H](C)CCC([C@H]1C)[C@]42OO3 (stereo partly specified),GI50,[1],> 100 µM (inactive)
same,GI50,[2],> 100 µM (inactive)
same,GI50,[3],> 100 µM (inactive)
same,GI50,[4],> 100 µM (inactive)
same,GI50,[5],1.32 µM (inactive)
same,GI50,[54],44.2 µM (inactive)
same,GI50,[6],> 100 µM (inactive)
same,GI50,[7],> 100 µM (inactive)
same,GI50,[8],> 100 µM (inactive)
same,GI50,[10],> 100 µM (inactive)
same,GI50,[55],> 100 µM (inactive)
same,GI50,[11],78.9 µM (inactive)
same,GI50,[12],38 µM (inactive)
same,GI50,[56],> 100 µM (inactive)
same,GI50,[13],> 100 µM (inactive)
same,GI50,[14],> 100 µM (inactive)
same,GI50,[15],> 100 µM (inactive)
same,GI50,[16],> 100 µM (inactive)
same,GI50,[17],> 100 µM (inactive)
same,GI50,[18],> 100 µM (inactive)
same,GI50,[19],> 100 µM (inactive)
same,GI50,[20],> 100 µM (inactive)
same,GI50,[21],> 100 µM (inactive)
same,GI50,[22],> 100 µM (inactive)
same,GI50,[23],> 100 µM
same,GI50,[24],> 100 µM (inactive)
same,GI50,[25],76 µM (inactive)
same,GI50,[26],> 100 µM (inactive)
same,GI50,[27],> 100 µM (inactive)
same,GI50,[57],> 100 µM (inactive)
same,GI50,[29],> 100 µM (inactive)
same,GI50,[30],> 100 µM (inactive)
same,GI50,[31],28.2 µM (inactive)
same,GI50,[32],> 100 µM (inactive)
same,GI50,[33],> 100 µM (inactive)
same,GI50,[34],> 100 µM (inactive)
same,GI50,[35],26.5 µM (inactive)
same,GI50,[36],56.2 µM (inactive)
same,GI50,[37],91.6 µM (inactive)
same,GI50,[38],> 100 µM (inactive)
same,GI50,[39],53.6 µM (inactive)
same,GI50,[40],> 100 µM (inactive)
same,GI50,[41],> 100 µM (inactive)
same,GI50,[58],> 100 µM (inactive)
same,GI50,[42],85.9 µM (inactive)
same,GI50,[43],> 100 µM (inactive)
same,GI50,[44],> 100 µM (inactive)
same,GI50,[45],> 100 µM (inactive)
same,GI50,[46],> 100 µM (inactive)
same,GI50,[47],> 100 µM (inactive)
same,GI50,[48],19.1 µM (inactive)
same,GI50,[49],> 100 µM (inactive)
same,GI50,[50],24.8 µM (inactive)
same,GI50,[51],36.6 µM (inactive)
same,GI50,[53],12.1 µM (inactive)
COc1ccc(C2=C(OC(=O)N(C)C)c3cccn3-c3cc(C(F)(F)F)ccc3S2)cc1,GI50,[2],> 10 µM (inactive)
same,GI50,[4],> 10 µM (inactive)
same,GI50,[5],6.03 µM (inactive)
same,GI50,[8],> 10 µM (inactive)
same,GI50,[9],0.467 µM (active)
same,GI50,[10],> 10 µM (inactive)
same,GI50,[55],> 10 µM (inactive)
same,GI50,[12],> 10 µM (inactive)
same,GI50,[13],> 10 µM (inactive)
same,GI50,[14],> 10 µM (inactive)
same,GI50,[15],> 10 µM (inactive)
same,GI50,[18],8.81 µM (inactive)
same,GI50,[19],> 10 µM (inactive)
same,GI50,[20],> 10 µM (inactive)
same,GI50,[21],> 10 µM (inactive)
same,GI50,[23],> 10 µM
same,GI50,[24],> 10 µM (inactive)
same,GI50,[25],4.3 µM (inactive)
same,GI50,[27],> 10 µM (inactive)
same,GI50,[28],9.29 µM (inactive)
same,GI50,[29],> 10 µM (inactive)
same,GI50,[31],> 10 µM (inactive)
same,GI50,[33],> 10 µM (inactive)
same,GI50,[35],> 10 µM (inactive)
same,GI50,[36],4.99 µM (inactive)
same,GI50,[37],3.47 µM (inactive)
same,GI50,[38],> 10 µM (inactive)
same,GI50,[39],> 10 µM (inactive)
same,GI50,[41],> 10 µM (inactive)
same,GI50,[58],> 10 µM (inactive)
same,GI50,[42],> 10 µM (inactive)
same,GI50,[45],> 10 µM (inactive)
same,GI50,[46],> 10 µM (inactive)
same,GI50,[47],> 10 µM (inactive)
same,GI50,[48],> 10 µM (inactive)
same,GI50,[51],4.79 µM (inactive)
same,GI50,[52],> 10 µM (inactive)
same,GI50,[53],3.75 µM (inactive)

# — ChEMBL document CHEMBL1201862, “PubChem BioAssay data set” (2004)
